Tested on: scopolamine induced dry eye model
Experiment: Scopolamine induced dry eye model, corneal fluorescein staining (Example 3)
Assay type: in vivo, rat
Settings: single topical 5 μl of 1% (10 mg/mL) on day eight; read day fourteen; score 0 to 4
Description: Dry eye was induced using scopolamine (Sigma-Aldrich, St. Louis, Mo.), which was continuously and systemically delivered to the animals via an osmotic pump (2ML4 Alzet®; CedarLane, Burlington, Ontario) filled with scopolamine and implanted subcutaneously in the mid dorsal area between the scapulae. The wound was closed with 2-3 wound clips. After the surgery and again the next day, the animals were subcutaneously injected with Carprofen (0.5 mg/100 g) a non-steroidal anti-inflammatory drug and potent, long-acting analgesic in rodents. Animals were anaesthetized before the surgical pump implantation and before all clinical endpoint testing in an Isofluorane 99.9% USP (Abraxis Bioscience, Richmond Hill, Ontario) chamber. Scopolamine was delivered at 12.5 mg/day and, for technical reasons, the data was evaluated at day 14. […]
The clinical signs of corneal dryness were evaluated by fluorescein impregnation of the cornea. […] For each animal, the punctate fluorescent-positive area of the ocular surface was recorded in a blinded fashion. […]

NCCCC[C@@H]1NC(=O)[C@H](CCC(=O)O)NC(=O)c2cc([N+](=O)[O-])ccc2OCCC(C(=O)NCC(=O)O)NC1=O (stereo partly shown) [Compound D3]
corneal fluorescein staining, mean score: 1.1±0.1 score
